Experimental data: patent US9931287B2, “Simple micro-particulate suspension of behentrimonium chloride with favorable distributive and adsorptive properties” (Formula XO, Inc., priority 2013, dated 2018)

Tests used:
[1] = Spraying onto a clear glass surface held perpendicular to the ground (retention); assay type: physicochemical; conditions: sprayed on clear glass held perpendicular to the ground; same BC concentration
Description: A BC/DPLC suspension prepared as in Example 1 and a BC solution (at the same concentration) are sprayed on to a clear glass surface held perpendicular to the ground. The liquids run freely downward. […] This teaches that spraying of the BC/DPLC formulation achieves the desired benefit, as expected in its use on hair and skin.

[2] = Appearance of solutions after cooling to room temperature; assay type: physicochemical; conditions: cooled from 85° C. to room temperature
Experimental: A solution of BC is prepared by adding 20 grams BTMC-85 (Mason chemical company, 80% active by weight) to 330 ml of water and heating to 85° C. 50 grams of DPLC (SL-5, Mason chemical company, 35% active by weight) is added. The solution is clear and a slight yellow in color. A solution of BC is prepared in water as above but without addition of DPLC. Both solutions are cooled to room temperature.

[3] = tested on: wet hair of individuals; test: Spraying onto the wet hair of individuals; assay type: in vivo; conditions: sprayed onto wet hair, left on while hair dried, combed and brushed while damp
Experimental: A suspension of BC/DPLC was prepared as described in Example 1. It was sprayed onto the wet hair of individuals and left on while the hair dried. The hair was combed and brushed while still damp.
A solution of BC, equal in the concentration BC as in Example 1, was also sprayed on the wet hair of an individual, as described above.

[4] = Spraying of formulations onto surface of a pan of water (dilution stability of aggregates); assay type: physicochemical; conditions: mixed vigorously, sprayed onto surface of a pan of water at room temperature (20° C.)
Experimental: The two formulations are each mixed vigorously to disperse their contents and then sprayed onto the surface of a pan of water at room temperature (20° C.).

SMILES: CCCCCCCCCCCCCCCCCCCCCC[N+](C)(C)C [BC, Behentrimonium chloride (N,N,N-trimethyldocosan-1-aminium chloride]
- appearance of glass surface after liquid runs off [1]: clear
- appearance of solution after cooling [2]: forms a uniform milky suspension
- feel of hair [3]: oily, and lacked the feel and management properties of the BC/DPLC formulation
- behaviour on dilution in water [4]: gradually diffuses down into the water layer resulting in a nearly clear, transparent solution
